Assay results: US12264139B2, “Aryl sulfonamides as BLT1 antagonists” (Merck Sharp & Dohme LLC, priority 2015, dated 2025)

Target: T1, human BLT1 receptor (Homo sapiens, UniProt Q15722)
T1 construct: expressed in transfected cells; host or cells: HEK293
Test: BLT-1 cAMP Assay
Type: cell-based
Conditions: HEK293 cells recombinantly expressing human BLT1; antagonist activity vs forskolin 4 μM and LTB4 2 nM; cAMP (CisBio kit)
Description: The ability of compounds to antagonize the human BLT1 receptor was determined using a kit to measure changes in intracellular cyclic AMP levels (cAMP dynamic assay kit, Cisbio Cat. No. 62AM4PEC). […] The cell suspension was centrifuged at 200×g for 10 min and then resuspended in fresh assay medium to a density of 2.5×10^5 cells/mL. […] All subsequent liquid additions were performed using a BIORAPTR (FRD; Beckman Coulter). Next, 5 μL of cell suspension was added and incubated for 20 min. at 37° C. and 5% CO2 in a humidified plastic tray.
The levels of cAMP were detected using the CisBio kit following the manufacturer's instructions: cAMP-d2 vial was reconstituted with distilled water and then diluted accordingly with conjugate & lysis buffer. 5 µL of cAMP-d2 working solution was added to all of the wells of the assay plate. cAMP-Cryptate vial was reconstituted with distilled water and then diluted accordingly with conjugate & lysis buffer. 5 µL of cAMP-Cryptate working solution were added to the assay plate. The assay plate was shaken for 3 minutes and incubated at room temperature for 45 minutes, then read on Perkin Elmer Envision. cAMP standard curve and fit data were plotted using a 4 parameter dose response curve fitting algorithm to fit curve. […] After normalization to treated and untreated controls, the percent effect of signal at each compound concentration was calculated. The plot of percent effect versus the log of compound concentration was fit with a 4-parameter concentration response equation to calculate EC50 values.

T1 sequence (Q15722 whole entry): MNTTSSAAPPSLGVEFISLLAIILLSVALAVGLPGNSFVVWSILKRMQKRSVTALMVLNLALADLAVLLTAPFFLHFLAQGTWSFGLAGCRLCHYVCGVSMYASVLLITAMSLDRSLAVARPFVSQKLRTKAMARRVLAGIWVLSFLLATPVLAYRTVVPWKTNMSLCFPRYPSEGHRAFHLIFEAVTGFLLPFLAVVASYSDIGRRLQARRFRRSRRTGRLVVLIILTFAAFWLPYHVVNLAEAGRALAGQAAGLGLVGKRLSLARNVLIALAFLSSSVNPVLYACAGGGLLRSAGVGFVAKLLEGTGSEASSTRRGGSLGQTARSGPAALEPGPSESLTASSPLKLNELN

Row | SMILES | EC50 [nM]
1 | O=S(=O)(Nc1ccccc1-c1ccc2c(c1)OCC(Cc1ccccc1)C2O)C(F)(F)F (racemic) [Example 2, N-(2-((3,4-Rac-trans)-3-benzyl-4-hydroxychroman-7-yl)phenyl)-1,1,1-trifluoromethanesulfonamide] | 31
2 | O=S(=O)(Nc1ccccc1-c1ccc2c(c1)OC[C@@H](Cc1ccc(-c3ccccc3)cc1)[C@H]2O)C(F)(F)F (racemic) [Example 3, N-(2-((3,4-Rac-cis)-3-([1,1′-biphenyl]-4-ylmethyl)-4-hydroxychroman-7-yl)phenyl)-1,1,1-trifluoromethanesulfonamide] | 2290
3 | O=S(=O)(Nc1ccccc1-c1ccc2c(c1)OC[C@@H](Cc1ccc(-c3ccccc3)cc1)[C@@H]2O)C(F)(F)F (racemic) [Example 4, N-(2-((3,4-Rac-trans)-3-([1,1′-biphenyl]-4-ylmethyl)-4-hydroxychroman-7-yl)phenyl)-1,1,1-trifluoromethanesulfonamide] | 6
4 | O=S(=O)(Nc1ccccc1-c1ccc2c(c1)OCC(Cc1ccc(-c3ccccc3)s1)C2O)C(F)(F)F (racemic) [Example 5, 1,1,1-Trifluoro-N-(2-((3,4-rac-trans)-4-hydroxy-3-((5-phenylthiophen-2-yl)methyl)chroman-7-yl)phenyl)methanesulfonamide] | 9
5 | O=S(=O)(Nc1ccccc1-c1ccc2c(c1)OCC(Cc1cc[nH]n1)C2O)C(F)(F)F (racemic) [Example 6, N-(2-((3,4-Rac-trans)-3-((1H-pyrazol-3-yl)methyl)-4-hydroxychroman-7-yl)phenyl)-1,1,1-trifluoromethanesulfonamide] | 240
6 | Cc1ccc(CC2COc3cc(-c4ccccc4NS(=O)(=O)C(F)(F)F)ccc3C2O)nc1 (racemic) [Example 11, 1,1,1-Trifluoro-N-(2-((3,4-rac-trans)-4-hydroxy-3-((5-methylpyridin-2-yl)methyl)chroman-7-yl)phenyl)methanesulfonamide] | 105

Continued, values first:

Row | EC50 [nM] | SMILES
7 | 3510 | O=S(=O)(Nc1ccccc1-c1ccc2c(c1)OCC(Cc1cccnc1)C2O)C(F)(F)F (racemic) [Example 7, 1,1,1-Trifluoro-N-(2-((3,4-rac-trans)-4-hydroxy-3-(pyridin-3-ylmethyl)chroman-7-yl)phenyl)methanesulfonamide]
8 | 21 | O=S(=O)(Nc1ccccc1-c1ccc2c(c1)OCC(Cc1ccsc1)C2O)C(F)(F)F (racemic) [Example 8, 1,1,1-Trifluoro-N-(2-((3,4-rac-trans)-4-hydroxy-3-(thiophen-3-ylmethyl)chroman-7-yl)phenyl)methanesulfonamide]
9 | 269 | O=S(=O)(Nc1ccccc1-c1ccc2c(c1)OC[C@@H](Cc1cncs1)[C@@H]2O)C(F)(F)F (racemic) [Example 9, 1,1,1-Trifluoro-N-(2-((3,4-rac-trans)-4-hydroxy-3-(thiazol-5-ylmethyl)chroman-7-yl)phenyl)methanesulfonamide]
10 | 4540 | O=S(=O)(Nc1ccccc1-c1ccc2c(c1)OC[C@@H](Cc1cncs1)[C@H]2O)C(F)(F)F (racemic) [Example 10, 1,1,1-Trifluoro-N-(2-((3,4-rac-cis)-4-hydroxy-3-(thiazol-5-ylmethyl)chroman-7-yl)phenyl)methanesulfonamide]
11 | 1650 | O=S(=O)(Nc1ccccc1-c1ccc2c(c1)OCC(Cc1cn[nH]c1)C2O)C(F)(F)F (racemic) [Example 12, N-(2-((3,4-Rac-trans)-3-((1H-pyrazol-4-yl)methyl)-4-hydroxychroman-7-yl)phenyl)-1,1,1-trifluoromethanesulfonamide]
12 | 185 | Cn1nccc1CC1COc2cc(-c3ccccc3NS(=O)(=O)C(F)(F)F)ccc2C1O (racemic) [Example 13, 1,1,1-Trifluoro-N-(2-((3,4-rac-trans)-4-hydroxy-3-((1-methyl-1H-pyrazol-5-yl)methyl)chroman-7-yl)phenyl)methanesulfonamide]
